Assay results reported in the NIST ThermoML archive (doi:10.1016/j.jct.2015.07.005).
“And” between values parts separate entries of the source, which are not always exact repeats. Equal entries are not always repeated.

Conditions: Gas, Frequency=0.005 MHz, Spherical cavity resonance method

C [methane]
Conditions | speed of sound
280.01 K, 500.03 kPa | 434.02 m/s and 434.03 m/s
280.01 K, 500.04 kPa | 434.03 m/s
280.01 K, 500.18 kPa | 434.03 m/s
280.02 K, 500.03 kPa | 434.03 m/s and 434.03 m/s
280.02 K, 500.04 kPa | 434.03 m/s and 434.02 m/s and 434.03 m/s
280.02 K, 500.18 kPa | 434.03 m/s
280.02 K, 500.19 kPa | 434.03 m/s and 434.03 m/s and 434.03 m/s
293.27 K, 394.31 kPa | 443.98 m/s and 443.97 m/s and 443.97 m/s
293.27 K, 394.32 kPa | 443.97 m/s and 443.97 m/s and 443.97 m/s
293.28 K, 394.32 kPa | 443.97 m/s [middle of 6 runs]
293.28 K, 394.33 kPa | 443.98 m/s and 443.98 m/s and 443.97 m/s
293.28 K, 394.34 kPa | 443.98 m/s
293.28 K, 394.35 kPa | 443.98 m/s and 443.98 m/s
293.29 K, 394.36 kPa | 443.98 m/s and 443.97 m/s
319.52 K, 429.9 kPa | 462.06 m/s
319.53 K, 429.91 kPa | 462.06 m/s
319.55 K, 428.61 kPa | 461.97 m/s and 461.97 m/s
319.87 K, 471.86 kPa | 462.12 m/s
319.87 K, 471.87 kPa | 462.12 m/s
319.88 K, 471.88 kPa | 462.12 m/s
319.88 K, 471.91 kPa | 462.13 m/s
319.89 K, 471.91 kPa | 462.13 m/s and 462.13 m/s
319.89 K, 471.92 kPa | 462.13 m/s
319.89 K, 471.93 kPa | 462.12 m/s and 462.13 m/s
319.94 K, 430.41 kPa | 462.32 m/s
319.94 K, 430.42 kPa | 462.32 m/s
319.95 K, 429.13 kPa | 462.24 m/s
319.96 K, 429.13 kPa | 462.24 m/s
339.35 K, 456 kPa | 474.76 m/s and 474.76 m/s
339.88 K, 456.67 kPa | 475.08 m/s
339.89 K, 456.67 kPa | 475.08 m/s
359.27 K, 481.98 kPa | 486.94 m/s
359.28 K, 480.58 kPa | 486.84 m/s
359.28 K, 481.81 kPa | 486.76 m/s
359.28 K, 481.99 kPa | 486.94 m/s
359.29 K, 480.58 kPa | 486.85 m/s
359.85 K, 482.79 kPa | 487.31 m/s
359.86 K, 482.59 kPa | 487.15 m/s
359.86 K, 482.79 kPa | 487.31 m/s
359.87 K, 482.6 kPa | 487.15 m/s
360.03 K, 529.63 kPa | 487.35 m/s
360.03 K, 529.64 kPa | 487.35 m/s and 487.35 m/s
360.03 K, 529.66 kPa | 487.35 m/s
360.04 K, 529.66 kPa | 487.34 m/s and 487.34 m/s
360.04 K, 529.67 kPa | 487.33 m/s and 487.33 m/s
379.2 K, 507.87 kPa | 498.66 m/s and 498.66 m/s
379.78 K, 508.56 kPa | 498.97 m/s and 498.98 m/s
399.24 K, 533.63 kPa | 510.01 m/s and 510.02 m/s
399.82 K, 534.48 kPa | 510.39 m/s and 510.39 m/s
399.99 K, 471.94 kPa | 510.49 m/s and 510.5 m/s and 510.49 m/s
399.99 K, 471.95 kPa | 510.47 m/s and 510.48 m/s
399.99 K, 471.96 kPa | 510.47 m/s
399.99 K, 471.97 kPa | 510.47 m/s
399.99 K, 471.98 kPa | 510.47 m/s
400 K, 471.96 kPa | 510.46 m/s
419.54 K, 559.42 kPa | 521.02 m/s
419.55 K, 559.43 kPa | 521.03 m/s
419.56 K, 559.63 kPa | 521.2 m/s and 521.2 m/s
419.99 K, 560 kPa | 521.28 m/s
420 K, 560.01 kPa | 521.28 m/s and 521.29 m/s
420.02 K, 560.19 kPa | 521.47 m/s
420.02 K, 560.2 kPa | 521.46 m/s
439.94 K, 496.85 kPa | 532.03 m/s
439.94 K, 496.86 kPa | 532.02 m/s and 532.03 m/s
439.94 K, 496.87 kPa | 532.02 m/s
439.94 K, 496.88 kPa | 532.01 m/s [middle of 5 runs]
449.69 K, 597.89 kPa | 537.24 m/s
449.69 K, 597.9 kPa | 537.24 m/s [middle of 6 runs]
449.7 K, 597.88 kPa | 537.22 m/s
449.7 K, 597.89 kPa | 537.22 m/s and 537.23 m/s
449.7 K, 597.9 kPa | 537.23 m/s and 537.24 m/s and 537.23 m/s
449.71 K, 597.88 kPa | 537.22 m/s and 537.21 m/s
449.71 K, 597.89 kPa | 537.22 m/s [middle of 5 runs]
449.72 K, 597.88 kPa | 537.2 m/s
449.72 K, 597.89 kPa | 537.21 m/s [middle of 4 runs]
449.73 K, 597.86 kPa | 537.19 m/s
449.73 K, 597.87 kPa | 537.2 m/s and 537.19 m/s and 537.19 m/s
449.74 K, 597.86 kPa | 537.19 m/s
449.74 K, 597.87 kPa | 537.2 m/s and 537.2 m/s
449.77 K, 597.88 kPa | 537.2 m/s and 537.2 m/s
449.78 K, 597.9 kPa | 537.2 m/s
449.79 K, 597.9 kPa | 537.2 m/s
479.91 K, 495.54 kPa | 552.38 m/s
479.92 K, 495.51 kPa | 552.4 m/s and 552.39 m/s
479.92 K, 495.52 kPa | 552.4 m/s
479.92 K, 495.54 kPa | 552.39 m/s
479.92 K, 495.55 kPa | 552.39 m/s
479.92 K, 495.57 kPa | 552.38 m/s and 552.39 m/s
479.92 K, 539.8 kPa | 552.38 m/s and 552.39 m/s
479.92 K, 539.81 kPa | 552.39 m/s
